Test system: scar formation after surgical incisions
Assay: Scar formation after surgical incisions in mice, cream applied 24 hours after surgery
Assay type: in vivo, Swiss-Webster mice
Settings: rated from 0 (little or no scarring) to 4 (maximum observed scarring); cream at pH 6.5 applied 24 hours after 1.25 cm surgical incision; 15 mice
Protocol: This Example describes the use of a pastes prepared with the complexes of various copper peptides or copper complexes of amino acids and combinations of copper peptides or copper complexes of amino acids and salicylic acid to reduce scarring after surgery in animals.
Surgical incisions (1.25 cm) were made on the backs of anesthetized, 35 gram, Swiss-Webster mice. To allow normal scar development, there was no treatment after surgery. But 24 hours after surgery, the scars were covered with a cream containing either copper peptide alone or in combination with salicylic acid. Control wounds were untreated.
For comparison, the amount of scar formation was rated from 0 (little or no scarring) to 4 (maximum observed scarring) after seven days.
Table 1: Effect of cream at pH 6.5 with either peptide-copper complex or amino acid-copper complex or the combination of peptide copper/salicylic acid combination or amino acid copper/salicylic acid combination on scar formation

Substance: Gly-His-Lys-Copper(II)
- Scar Formation score after 7 days: 2.7 ± 0.6
